Measurements from the NIST ThermoML archive (doi:10.1021/je700260f).

Settings: 303.15 K, Liquid, Vibrating tube method

FC(C(F)(F)F)C(F)(F)F [1,1,1,2,3,3,3-heptafluoropropane]
Settings	mass density [kg/m3]
23528 kPa	1493.1
23717 kPa	1493.9
23749 kPa	1494.1
23780 kPa	1494.1
23812 kPa	1494.2
23848 kPa	1494.4
23884 kPa	1494.5
23911 kPa	1494.7
23938 kPa	1494.6
23969 kPa	1494.8
24001 kPa	1494.9
24032 kPa	1495.2
24063 kPa	1495.2
24107 kPa	1495.5
24143 kPa	1495.5
24178 kPa	1495.8
24209 kPa	1495.8
24240 kPa	1495.8
24271 kPa	1496.1
24303 kPa	1496.1
24338 kPa	1496.2
24370 kPa	1496.4
24397 kPa	1496.4
24429 kPa	1496.6
24461 kPa	1496.8
24496 kPa	1496.7
24528 kPa	1497
24559 kPa	1497.1
24590 kPa	1497.1
24626 kPa	1497.4
24654 kPa	1497.4
24682 kPa	1497.4
24714 kPa	1497.6
24750 kPa	1497.8
24778 kPa	1497.8
24809 kPa	1497.9
24844 kPa	1498.2
24868 kPa	1498.2
24901 kPa	1498.4
24928 kPa	1498.3
24952 kPa	1498.5
24987 kPa	1498.7
25022 kPa	1498.7
25049 kPa	1498.9
25077 kPa	1498.9
25110 kPa	1499.1
25135 kPa	1499.1
25167 kPa	1499.3
25195 kPa	1499.1
25223 kPa	1499.5
25247 kPa	1499.5
25287 kPa	1499.7
25310 kPa	1499.8
25346 kPa	1499.9
25370 kPa	1499.9
25411 kPa	1500.1
25443 kPa	1500.1
25467 kPa	1500.4
25503 kPa	1500.4
25528 kPa	1500.5
25561 kPa	1500.7
25602 kPa	1500.8
25630 kPa	1501
25658 kPa	1501.1
25686 kPa	1501
25715 kPa	1501.2
25740 kPa	1501.3
25774 kPa	1501.4
25801 kPa	1501.6
25837 kPa	1501.5
25858 kPa	1501.5
25891 kPa	1501.9
25911 kPa	1501.9
25944 kPa	1502
25972 kPa	1502.1
26000 kPa	1502.2
26025 kPa	1502.4
26056 kPa	1502.4
26076 kPa	1502.6
26109 kPa	1502.6
26134 kPa	1502.8
26158 kPa	1502.9
26191 kPa	1502.9
26216 kPa	1502.9
26252 kPa	1503
26284 kPa	1503.3
26307 kPa	1503.3
26336 kPa	1503.4
26361 kPa	1503.5
26394 kPa	1503.6
26418 kPa	1503.8
26512 kPa	1503.9
26545 kPa	1504.1
26714 kPa	1504.6
26743 kPa	1504.8
26776 kPa	1504.9
26801 kPa	1505.1
26834 kPa	1505.2
26858 kPa	1505.2
26891 kPa	1505.3
26924 kPa	1505.5
26948 kPa	1505.5
26981 kPa	1505.7
27006 kPa	1505.7
27035 kPa	1505.9
27060 kPa	1506
27246 kPa	1506.5
27275 kPa	1506.7
27304 kPa	1506.8
27334 kPa	1506.8
27368 kPa	1507.1
27464 kPa	1507.4
28427 kPa	1510.7
28456 kPa	1510.8
28486 kPa	1510.9
28516 kPa	1510.9
28541 kPa	1511.1
28576 kPa	1511.2
28601 kPa	1511.3
28636 kPa	1511.4
28661 kPa	1511.3
28700 kPa	1511.5
28729 kPa	1511.7
28768 kPa	1511.7
28793 kPa	1511.8
28832 kPa	1512
28858 kPa	1512.2
28893 kPa	1512.3
28924 kPa	1512.3
28967 kPa	1512.6
28997 kPa	1512.6
29020 kPa	1512.7
29047 kPa	1512.7
29074 kPa	1512.8
29113 kPa	1513
29139 kPa	1513
29169 kPa	1513
29196 kPa	1513.3
29235 kPa	1513.4
29267 kPa	1513.4
29298 kPa	1513.6
29323 kPa	1513.6
29349 kPa	1513.7
29389 kPa	1513.9
29429 kPa	1514.1
29461 kPa	1514.1
29492 kPa	1514.2
29527 kPa	1514.4
29554 kPa	1514.5
29584 kPa	1514.6
29614 kPa	1514.7
29645 kPa	1514.6
29676 kPa	1514.8
29706 kPa	1515
29746 kPa	1515
29773 kPa	1515.3
29800 kPa	1515.3
29831 kPa	1515.3
29866 kPa	1515.5
29892 kPa	1515.6
29927 kPa	1515.6
29953 kPa	1515.7
29984 kPa	1515.8
30015 kPa	1516
30043 kPa	1516.2
30079 kPa	1516.2
30110 kPa	1516.3
30145 kPa	1516.4
30176 kPa	1516.5
30211 kPa	1516.5
30247 kPa	1516.7
30277 kPa	1516.8
30316 kPa	1516.9
30341 kPa	1516.9
30376 kPa	1517.1
30406 kPa	1517.2
30437 kPa	1517.3
30464 kPa	1517.4
30502 kPa	1517.5
30529 kPa	1517.6
30561 kPa	1517.7
30597 kPa	1517.8
30619 kPa	1518
30655 kPa	1518.1
30678 kPa	1518.1
30713 kPa	1518.1
30735 kPa	1518.4
30769 kPa	1518.4
30805 kPa	1518.6
30842 kPa	1518.6
30873 kPa	1518.8
30910 kPa	1518.8
30945 kPa	1518.9
30977 kPa	1519.1
31009 kPa	1519
31044 kPa	1519.2
31076 kPa	1519.4
31117 kPa	1519.6
31149 kPa	1519.7
31186 kPa	1519.7
31223 kPa	1519.8
31256 kPa	1519.8
31292 kPa	1519.9
31319 kPa	1520.1
31351 kPa	1520.3
